Measured values from BindingDB's records for PubMed 34147747 (n/a, 2021).

Legend:
[1] = target: corticotropin-releasing factor receptor (rat); assay: Binding affinity to rat CRF receptor assessed as inhibition constant
[2] = Binding affinity to CRF (unknown origin) receptor assessed as inhibition constant

Ki [1] [nM]	Ki [2] [nM]	Structure (SMILES)
2		CCCC(COC)c1c(CC)nn2c(-c3cc(OC)c(OC)cc3Cl)nc(C)nc12 (stereo not given)
1.4		CCCC(COC)c1c(CC)nn2c(-c3ccc(Cl)cc3Cl)nc(C)nc12 (stereo not given)
2.6		CCCC(C)c1c(CC)nn2c(-c3cc(OC)c(OC)cc3Cl)nc(C)nc12 (stereo not given)
1		CCCC(CCC)c1c(CC)nn2c(-c3ccc(Cl)cc3Cl)nc(C)nc12
	0.7	CCCC(CCC)c1c(CC)nn2c(-c3cc(OC)c(OC)cc3Cl)nc(C)nc12
